The values that follow come from patent US8609669B2, “Potassium channel modulators” (AbbVie Inc., priority 2010, dated 2013).

SMILES strings stand for the structures.

Test [1] deals with CCI-induced mechanical allodynia. Briefly: Chronic constriction injury (CCI) model of neuropathic pain (Bennett model). The test is classed as in vivo, Sprague-Dawley rats. To be noted: rat CCI, about 30 mg/kg i.p., 30 minutes or more before testing. An excerpt:
Adult male Sprague-Dawley rats (250-300 g body weight, Charles River Laboratories, Portage, Mich.) were used. Animal handling and experimental protocols were approved by the Institutional Animal Care and Use Committee (IACUC) at Abbott Laboratories. For all surgical procedures, animals were maintained under isoflurane anesthesia (4-5% to induce, 1-3% to maintain), and the incision sites were sterilized using a 10% povidone-iodine solution prior to and after surgeries.
Tactile (mechanical) allodynia was measured using calibrated von Frey filaments (Stoelting, Wood Dale, Ill.) as described in Chaplan, S. R., F. W. Bach, J. M. Pogrel, J. M. Chung and T. L. Yaksh, 1994, Quantitative assessment of tactile allodynia in the rat paw, J. Neurosci. Methods, 53, 55. Rats were placed into inverted individual plastic containers (20×12.5×20 cm) on top of a suspended wire mesh grid, and acclimated to the test chambers for 20 minutes. The von Frey filaments were presented perpendicularly to the plantar surface of the selected hind paw, and then held in this position for approximately 8 seconds with enough force to cause a slight bend in the filament. Positive responses include an abrupt withdrawal of the hind paw from the stimulus, or flinching behavior immediately following removal of the stimulus.
A model of chronic constriction injury-induced (CCI) neuropathic pain was produced by following the method of Bennett and Xie (1988, Pain, 33, 87-107). The right common sciatic nerve was isolated at mid-thigh level, and loosely ligated by 4 chromic gut (5-0) ties separated by an interval of 1 mm. Sham rats can underwent the same procedure, but without sciatic nerve constriction. All animals can be left to recover for at least 2 weeks and no more than 5 weeks prior to testing of mechanical allodynia. Compounds were injected (i.p.) 30 minutes or more before testing.

Test [2] deals with T1, KCNQ 2/3 channels (HEK293 cells stably expressing human KCNQ2 and KCNQ3 subunits) (Homo sapiens, UniProt O43525+O43526).
T1 construct: expressed in transfected cells; host or cells: HEK293
Briefly: KCNQ2/3 channel activation, thallium flux FLIPR assay (BTC-AM dye). To be noted: for Emax: HEK293, maximum response relative to response of retigabine at 10 μM (set at 100%), read-out: Max. %; for EC50: HEK293 cells expressing human KCNQ2 and KCNQ3, FLIPR thallium flux. The format is cell-based. The method in brief: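 HEK293 cells stably expressing human KCNQ2/KCNQ3 were loaded with BTC-AM and exposed to compound for 4 min in pH 7.3 gluconate buffer with ouabain. Thallium flux was triggered with 6 mM TlNO3 and 10 mM K2SO4 (stock additions) and fluorescence (ex 488, em 540 nm) recorded for 3 min. EC50 came from responses over baseline; maximal response is relative to 10 μM retigabine (100%).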

Take `Cc1cnc2c(-c3ccc(F)c(C)c3)c(NC(=O)CCC3CCCCC3)nn2c1` [Example 35, 3-cyclohexyl-N-[3-(4-fluoro-3-methylphenyl)-6-methylpyrazolo[1,5-a]pyrimidin-2-yl]propanamide]: the “change in paw withdrawal latency versus vehicle” value in test [1] was “statistically significant change”. In test [2], the Emax turned out to be 116% and the half-maximal effective concentration (EC50) (commonly the concentration giving half of the maximal effect) is less than 100 nM.

Take `CC(C)(C)c1c(NC(=O)Cc2ccc(Cl)cc2)nn2cccnc12` [Example 152, N-(3-tert-butylpyrazolo[1,5-a]pyrimidin-2-yl)-2-(4-chlorophenyl)acetamide]: in test [2], the Emax came to 191% and the EC50 lay within 100 to 500 nM.

With `O=C(CCC1CCCC1)Nc1nn2cccnc2c1/C=C/c1ccc(C(F)(F)F)cc1` [Example 153, 3-cyclopentyl-N-(3-{(E)-2-[4-(trifluoromethyl)phenyl]vinyl}pyrazolo[1,5-a]pyrimidin-2-yl)propanamide], in test [2], the Emax worked out at 50% and the 50% effective concentration (EC50) is more than 10000 nM.

Turning to `CC(C)(C)c1c(NC(=O)CC2CCCC2)nn2cccnc12` [Example 154, N-(3-tert-butylpyrazolo[1,5-a]pyrimidin-2-yl)-2-cyclopentylacetamide], in test [2], the Emax was 188% and the EC50 fell in the range of 1000 to 10000 nM.

Consider `COc1ccc(CC(=O)Nc2nn3cccnc3c2C(C)(C)C)cc1` [Example 155, N-(3-tert-butylpyrazolo[1,5-a]pyrimidin-2-yl)-2-(4-methoxyphenyl)acetamide], for which, in test [2], the Emax amounted to 116% and the EC50 was in the range of 1000 to 10000 nM.

Turning to `CC(C)(C)CC(=O)Nc1nn2cccnc2c1C#Cc1ccc(OC(F)(F)F)cc1` [Example 156, 3,3-dimethyl-N-(3-{[4-(trifluoromethoxy)phenyl]ethynyl}pyrazolo[1,5-a]pyrimidin-2-yl)butanamide], in test [2], the Emax is 40% and the EC50 lay in the range of 1000 to 10000 nM.

With `O=C(CCC1CCCCC1)Nc1nn2cccnc2c1-c1ccc(Cl)cc1` [Example 157, N-[3-(4-chlorophenyl)pyrazolo[1,5-a]pyrimidin-2-yl]-3-cyclohexylpropanamide], in test [2], the Emax was found to be 99% and the 50% effective concentration (EC50) was less than 100 nM.

For `Cc1ccnc2c(-c3ccc(OC(F)(F)F)cc3)c(NC(=O)CC(C)(C)c3ccccc3)nn12` [Example 159, 3-methyl-N-{7-methyl-3-[4-(trifluoromethoxy)phenyl]pyrazolo[1,5-a]pyrimidin-2-yl}-3-phenylbutanamide], in test [2], the Emax was determined as 136% and the concentration for a half-maximal effect (EC50) lay within 500 to 1000 nM.

For the compound `CC(C)(C)/C=C/c1c(NC(=O)Cc2ccc(F)cc2)nn2cccnc12` [Example 161, N-{3-[(1E)-3,3-dimethylbut-1-en-1-yl]pyrazolo[1,5-a]pyrimidin-2-yl}-2-(4-fluorophenyl)acetamide], in test [2], the Emax was found to be 107% and the concentration for a half-maximal effect (EC50) fell in the range of 100 to 500 nM.

On to `O=C(CC12CC3CC(CC(C3)C1)C2)Nc1nn2cccnc2c1-c1ccc(Cl)cc1` [Example 162, 2-(adamantan-1-yl)-N-[3-(4-chlorophenyl)pyrazolo[1,5-a]pyrimidin-2-yl]acetamide], for which, in test [2], the Emax amounted to 128% and the EC50 is 500 to 1000 nM.

Consider `CC(C)(C)c1c(NC(=O)C=C2CCCCC2)nn2cccnc12` [Example 163, N-(3-tert-butylpyrazolo[1,5-a]pyrimidin-2-yl)-2-cyclohexylideneacetamide], for which, in test [2], the Emax stood at 133% and the EC50 lay within 1000 to 10000 nM.

Consider `Cc1cnc2c(-c3ccc(F)c(C)c3)c(NC(=O)CCC(C)(C)C)nn2c1` [Example 164, N-[3-(4-fluoro-3-methylphenyl)-6-methylpyrazolo[1,5-a]pyrimidin-2-yl]-4,4-dimethylpentanamide], for which, in test [2], the Emax was 126% and the EC50 lay within 500 to 1000 nM.

For `CC(C)(C)c1c(NC(=O)CCc2ccc(C(F)(F)F)cc2)nn2cccnc12` [Example 165, N-(3-tert-butylpyrazolo[1,5-a]pyrimidin-2-yl)-3-[4-(trifluoromethyl)phenyl]propanamide], in test [2], the Emax was 178% and the concentration giving a half-maximal response (EC50) fell in the range of 100 to 500 nM.

Consider `CC(C)c1ccc(CC(=O)Nc2nn3cccnc3c2C(C)(C)C)cc1` [Example 166, N-(3-tert-butylpyrazolo[1,5-a]pyrimidin-2-yl)-2-(4-isopropylphenyl)acetamide], for which, in test [2], the Emax is 154% and the EC50 is 500 to 1000 nM.

In the case of `C/C=C/c1c(NC(=O)CC(C)(C)C)nn2cccnc12` [Example 167, 3,3-dimethyl-N-{3-[(1E)-prop-1-en-1-yl]pyrazolo[1,5-a]pyrimidin-2-yl}butanamide], in test [2], the Emax was 98% and the EC50 was 1000 to 10000 nM.

Consider `Cc1ccn2nc(NC(=O)Cc3ccc(F)cc3)c(-c3ccc(OC(F)(F)F)cc3)c2n1` [Example 168, 2-(4-fluorophenyl)-N-{5-methyl-3-[4-(trifluoromethoxy)phenyl]pyrazolo[1,5-a]pyrimidin-2-yl}acetamide], for which, in test [2], the Emax came out at 78% and the 50% effective concentration (EC50) was 100 to 500 nM.

Consider `CC(C)(C)c1c(NC(=O)CC2CCC3C2C3(Cl)Cl)nn2cccnc12` (stereo not drawn) [Example 169, N-(3-tert-butylpyrazolo[1,5-a]pyrimidin-2-yl)-2-[(cis)-6,6-dichlorobicyclo[3.1.0]hex-2-yl]acetamide], for which, in test [2], the Emax came to 134% and the EC50 was 100 to 500 nM.

Turning to `CC(C)(C)CCC(=O)Nc1nn2cccnc2c1C(C)(C)C` [Example 170, N-(3-tert-butylpyrazolo[1,5-a]pyrimidin-2-yl)-4,4-dimethylpentanamide], in test [2], the Emax was found to be 124% and the EC50 was in the range of 1000 to 10000 nM.

For the compound `CC(C)(C)c1c(NC(=O)C[C@@H]2CC[C@H]3C[C@@H]2C3(C)C)nn2cccnc12` [Example 171, N-(3-tert-butylpyrazolo[1,5-a]pyrimidin-2-yl)-2-[(1S,2S,5S)-6,6-dimethylbicyclo[3.1.1]hept-2-yl]acetamide], in test [2], the Emax came out at 138% and the EC50 was less than 100 nM.

Turning to `Cc1cnc2c(-c3ccc(F)c(C)c3)c(NC(=O)C[S+]([O-])C3CCCC3)nn2c1` (stereo not shown) [Example 173, 2-(cyclopentylsulfinyl)-N-[3-(4-fluoro-3-methylphenyl)-6-methylpyrazolo[1,5-a]pyrimidin-2-yl]acetamide], in test [2], the Emax was found to be 21% and the EC50 was more than 10000 nM.

As to `Cc1cnc2c(-c3ccc(F)c(C)c3)c(NC(=O)CS(=O)(=O)C3CCCC3)nn2c1` [Example 174, 2-(cyclopentylsulfonyl)-N-[3-(4-fluoro-3-methylphenyl)-6-methylpyrazolo[1,5-a]pyrimidin-2-yl]acetamide], in test [2], the Emax was found to be 67% and the EC50 is more than 10000 nM.

Take `CC(C)(C)c1c(NC(=O)CC2CCC3CC23)nn2cccnc12` (stereo not drawn) [Example 175, 2-[(cis)-bicyclo[3.1.0]hex-2-yl]-N-(3-tert-butylpyrazolo[1,5-a]pyrimidin-2-yl)acetamide]: in test [2], the Emax is 177% and the half-maximal effective concentration (EC50) fell in the range of 1000 to 10000 nM.

Regarding `CC(C)(C)OC(=O)Nc1nn2cccnc2c1/C=C/C1CCCCC1` [Example 177, tert-butyl {3-[(E)-2-cyclohexylvinyl]pyrazolo[1,5-a]pyrimidin-2-yl}carbamate], in test [2], the Emax was 51% and the concentration giving a half-maximal response (EC50) was in the range of 1000 to 10000 nM.

Turning to `Cc1cnc2c(C(C)(C)C)c(NC(=O)CCC3CCCCC3)nn2c1` [Example 178, N-(3-tert-butyl-6-methylpyrazolo[1,5-a]pyrimidin-2-yl)-3-cyclohexylpropanamide], in test [2], the Emax stood at 158% and the EC50 is less than 100 nM.

For `Cc1cnc2c(C(C)(C)C)c(NC(=O)CCC3CCCC3)nn2c1` [Example 179, N-(3-tert-butyl-6-methylpyrazolo[1,5-a]pyrimidin-2-yl)-3-cyclopentylpropanamide], in test [2], the Emax is 151% and the concentration giving a half-maximal response (EC50) was less than 100 nM.

In the case of `Cc1cnc2c(C(C)(C)C)c(NC(=O)CC3CCCCC3)nn2c1` [Example 180, N-(3-tert-butyl-6-methylpyrazolo[1,5-a]pyrimidin-2-yl)-2-cyclohexylacetamide], in test [2], the Emax amounted to 155% and the EC50 was 100 to 500 nM.

As for `COc1ncc(-c2c(NC(=O)Cc3ccc(F)cc3)nn3cccnc23)cn1` [Example 181, 2-(4-fluorophenyl)-N-[3-(2-methoxypyrimidin-5-yl)pyrazolo[1,5-a]pyrimidin-2-yl]acetamide], in test [2], the Emax was 7% and the 50% effective concentration (EC50) is more than 10000 nM.
